We go through 33 molecules from patent US10913736B2 (UNIVERSITY OF WASHINGTON, priority 2014, dated 2021).

Several values for one entry are separate records, joined by “and”; a condition that tells them apart may be missing. Equal entries are not always repeated.

One experiment has as its target MetRS (T. brucei) (Trypanosoma brucei brucei, UniProt Q38C91). The experiment can be described thus: MetRS (T. brucei) ATP depletion assay using Kinase-Glo. In kind it is biochemical. A general note: In Kinase-Glo more light means more ATP remaining.
A further experiment deals with T. brucei. Briefly: Growth inhibition assay of T. brucei cell cultures (Alamar Blue, 48 h). In kind it is cell-based. The settings on record: Trypanosoma brucei; read-out: B) T. brucei EC50. A general note: The colour change of resazurin is a common sign of viable cells or microbes.

Sequence of MetRS (T. brucei) (Q38C91 entry or part of it): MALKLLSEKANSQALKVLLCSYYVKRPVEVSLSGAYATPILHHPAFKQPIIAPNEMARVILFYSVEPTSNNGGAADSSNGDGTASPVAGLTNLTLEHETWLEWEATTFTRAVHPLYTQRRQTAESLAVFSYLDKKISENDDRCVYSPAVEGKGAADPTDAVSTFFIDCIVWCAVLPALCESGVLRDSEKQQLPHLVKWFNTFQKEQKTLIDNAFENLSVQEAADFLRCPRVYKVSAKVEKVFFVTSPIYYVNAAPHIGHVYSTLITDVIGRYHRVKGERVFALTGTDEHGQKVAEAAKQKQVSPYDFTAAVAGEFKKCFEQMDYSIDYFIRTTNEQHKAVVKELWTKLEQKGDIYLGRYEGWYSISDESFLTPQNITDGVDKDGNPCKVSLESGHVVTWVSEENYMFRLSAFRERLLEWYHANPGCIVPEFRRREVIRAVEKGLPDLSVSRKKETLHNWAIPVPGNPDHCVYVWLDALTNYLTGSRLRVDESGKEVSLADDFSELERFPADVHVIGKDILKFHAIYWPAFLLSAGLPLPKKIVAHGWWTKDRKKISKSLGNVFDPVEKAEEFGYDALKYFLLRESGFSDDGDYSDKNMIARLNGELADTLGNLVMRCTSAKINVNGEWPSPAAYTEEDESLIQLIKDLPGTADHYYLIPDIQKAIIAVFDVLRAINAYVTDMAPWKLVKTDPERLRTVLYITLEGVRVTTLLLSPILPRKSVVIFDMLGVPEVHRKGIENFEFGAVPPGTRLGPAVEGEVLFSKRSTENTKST

A word on the IC50: it is the concentration needed to halve the response being measured. High values mean a need for much substance, low ones inhibition by little substance. One may read the EC50 as the concentration that produces a half-maximal response. Molecule `Clc1cc(Cl)cc(NC[C@H]2CCCN(c3nc4nc(Cl)ccc4[nH]3)C2)c1` [Compound 1922, (R)-3,5-dichloro-N-((1-(5-chloro-1H-imidazo[4,5-b]pyridin-2-yl)piperidin-3-yl)methyl)aniline] returned an IC50 against MetRS (T. brucei) of 0.14 µM. In addition, the EC50 with T. brucei worked out at 2.76 µM.

On MetRS (T. brucei), `CCOc1c(Cl)cc(Cl)cc1CN[C@H]1CCCN(c2nc3nc(Cl)ccc3[nH]2)C1` [Compound 1920, (S)-1-(5-chloro-1H-imidazo[4,5-b]pyridin-2-yl)-N-(3,5-dichloro-2-ethoxybenzyl)piperidin-3-amine] showed an IC50 of 0.016 µM. Also, the EC50 in the experiment on T. brucei came out at 0.111 µM.

With `Clc1cc(Cl)cc(NCC2CCCN(c3nc4nc(Cl)c(Br)cc4[nH]3)C2)c1` (stereo not drawn) [Compound 1863, N-((1-(6-bromo-5-chloro-1H-imidazo[4,5-b]pyridin-2-yl)piperidin-3-yl)methyl)-3,5-dichloroaniline], on MetRS (T. brucei), the IC50 was above 10 µM. The EC50 in the experiment on T. brucei was 3.29 µM.

Molecule `CC(Cc1nc2ccc(C(F)(F)F)cc2[nH]1)NCc1cc(Cl)cc(Cl)c1` (stereo not drawn) [Compound 1825, [(3,5-dichlorophenyl)methyl]({1-[6-(trifluoromethyl)-1H-1,3-benzodiazol-2-yl]propan-2-yl})amine] had an IC50 at MetRS (T. brucei) of 1.56 µM. In addition, in the experiment with T. brucei, the EC50 was determined as 3.65 µM.

In turn, `OC1N[C@@H](Cc2ccc(Cl)cc2Cl)C(O)N1Cc1nc2ccccc2[nH]1` (stereo partly drawn) [Compound 1906, (5S)-3-((H-benzo[d]imidazol-2-yl)methyl)-5-(2,4-dichlorobenzyl)imidazolidine-2,4-diol] returned an IC50 on MetRS (T. brucei) of 2.94 µM. Moreover, the concentration giving a half-maximal response (EC50) in the experiment with T. brucei was found to be 6.23 µM.

Turning to `Clc1cc(Cl)cc(CN2CCC[C@H](c3nc4cc(Cl)ccc4[nH]3)C2)c1` [Compound 1813, (S)-5-chloro-2-(1-(3,5-dichlorobenzyl)piperidin-3-yl)-1H-benzo[d]imidazole], the IC50 at MetRS (T. brucei) worked out at 0.747 µM. Also, in the experiment with T. brucei, the EC50 turned out to be 1.38 µM.

The molecule `Clc1cc(Cl)c(OC2CC2)c(CN[C@H]2CCCN(c3nc4nc(Cl)ccc4[nH]3)C2)c1` [Compound 1930, (S)-1-(5-chloro-1H-imidazo[4,5-b]pyridin-2-yl)-N-(3,5-dichloro-2-cyclopropoxybenzyl)piperidin-3-amine] showed an IC50 at MetRS (T. brucei) of 0.389 µM. Besides, in the experiment with T. brucei, the EC50 came to 3.12 µM.

Turning to `Clc1ccc(CN[C@H]2CCN(c3nc4ccc(Cl)nc4[nH]3)C2)c(Cl)c1` [Compound 1846, (3S)-1-{5-chloro-3H-imidazo[4,5-b]pyridin-2-yl}-N-[(2,4-dichlorophenyl)methyl]pyrrolidin-3-amine], the IC50 at MetRS (T. brucei) came to 1.64 µM. Also, in the experiment on T. brucei, the EC50 stood at 11 µM.

With `O=C(Cc1cc(Cl)cc(Cl)c1)N1CCOC(c2nc3nc(Cl)ccc3[nH]2)C1` (stereo not drawn) [Compound 1790, 1-(2-(5-chloro-1H-imidazo[4,5-b]pyridin-2-yl)morpholino)-2-(3,5-dichlorophenyl)ethanone], the half-inhibitory concentration (IC50) against MetRS (T. brucei) is 0.105 µM. For the same molecule, the EC50 with T. brucei stood at 2.7 µM.

On to `CC(=O)N(Cc1cc(Cl)cc(Cl)c1)N1CCCC(c2nc3cc(F)ccc3[nH]2)C1` (stereo not drawn) [Compound 1833, N-[(3,5-dichlorophenyl)methyl]-N-[3-(5-fluoro-1H-1,3-benzodiazol-2-yl)piperidin-1-yl]acetamide], for which the IC50 at MetRS (T. brucei) was above 10 µM. Further, the EC50 in the experiment with T. brucei is above 20 µM.

Consider `Clc1cc(Cl)cc(CNC2CCN(c3nc4nc(Cl)ccc4[nH]3)CC2)c1` [Compound 1867, 1-(5-chloro-1H-imidazo[4,5-b]pyridin-2-yl)-N-(3,5-dichlorobenzyl)piperidin-4-amine], for which half-maximal inhibition on MetRS (T. brucei) (IC50) required 4.97 µM. The EC50 with T. brucei is above 20 µM.

On to `CCNc1c(Cl)cc(Cl)cc1CN[C@H]1CCCN(c2nc3nc(Cl)ccc3[nH]2)C1` [Compound 1940, (S)-1-(5-chloro-1H-imidazo[4,5-b]pyridin-2-yl)-N-(3,5-dichloro-2-(ethylamino)benzyl)piperidin-3-amine], for which the IC50 on MetRS (T. brucei) was found to be 0.042 µM. The EC50 with T. brucei is 0.359 µM.

For the molecule `O=C(Cc1cc(Cl)cc(Cl)c1)N1CCC[C@@H](c2nc3cc(Cl)ccc3[nH]2)C1` [Compound 1757, (R)-1-(3-(5-chloro-1H-benzo[d]imidazol-2-yl)piperidin-1-yl)-2-(3,5-dichlorophenyl)ethanone], half-maximal inhibition at MetRS (T. brucei) (IC50) was put at 3.5 µM. For the same molecule, the EC50 with T. brucei was above 10 µM.

`O=C(CCOc1ccc(Cl)cc1Cl)NCc1nc2ccc(F)cc2[nH]1` [Compound 1740, 3-(2,4-dichlorophenoxy)-N-((6-fluoro-1H-benzo[d]imidazol-2-yl)methyl)propanamide] had an IC50 against MetRS (T. brucei) of 0.549 µM. In addition, the EC50 in the experiment on T. brucei was above 10 µM.

The molecule `O=C(NCc1cc(Cl)cc(Cl)c1)N1CCCC(c2nc3nc(Cl)ccc3[nH]2)C1` (stereo not drawn) [Compound 1785, 3-(5-chloro-1H-imidazo[4,5-b]pyridin-2-yl)-N-(3,5-dichlorobenzyl) piperidine-1-carboxamide] gave an IC50 on MetRS (T. brucei) above 10 µM. In addition, the EC50 in the experiment on T. brucei is above 20 µM.

Consider `CN(Cc1nc2ccccc2[nH]1)C(=O)CCOc1ccc(Cl)cc1Cl` [Compound 1727, N-(1H-1,3-benzodiazol-2-ylmethyl)-3-(2,4-dichlorophenoxy)-N-methylpropanamide], for which the IC50 against MetRS (T. brucei) was 5.09 µM. Also, the EC50 in the experiment on T. brucei was above 20 µM.

The molecule `CC(=O)N(Cc1cc(Cl)cc(Cl)c1)C1CCCN(c2nc3nc(F)ccc3[nH]2)C1` (stereo not drawn) [Compound 1887, N-(3,5-dichlorobenzyl)-N-(1-(5-fluoro-1H-imidazo[4,5-b]pyridin-2-yl)piperidin-3-yl)acetamide] yielded an IC50 on MetRS (T. brucei) of 6.66 µM. Besides, in the experiment with T. brucei, the concentration giving a half-maximal response (EC50) was above 20 µM.

As to `CNCc1cc(Cl)cc(Cl)c1O/C=C/C(=O)NCc1nc2ccccc2[nH]1` [Compound 1779, (2E)-N-(1H-1,3-benzodiazol-2-ylmethyl)-3-{2,4-dichloro-6-[(methylamino)methyl]phenoxy}prop-2-enamide], on MetRS (T. brucei), the IC50 is above 10 µM. Further, in the experiment on T. brucei, the EC50 was above 20 µM.

As to `C[C@H](Cc1nc2ccc(Cl)cc2[nH]1)NCc1cc(Cl)cc(Cl)c1` [Compound 1806, [(2R)-1-(6-chloro-1H-1,3-benzodiazol-2-yl)propan-2-yl][(3,5-dichlorophenyl)methyl]amine], the IC50 at MetRS (T. brucei) was 7.63 µM and 9.88 µM. Also, in the experiment with T. brucei, the EC50 worked out at 3.33 µM.

In the case of `O=C(Cc1cc(Cl)cc(Cl)c1)NC1CCCC(c2nc3nc(Cl)ccc3[nH]2)C1` (stereo not drawn) [Compound 1786, N-(3-(5-chloro-1H-imidazo[4,5-b]pyridin-2-yl)cyclohexyl)-2-(3,5-dichlorophenyl)acetamide], at MetRS (T. brucei), the IC50 came out at 0.31 µM. Further, the EC50 in the experiment on T. brucei amounted to 5.67 µM.

`O=C(Cc1cc(Cl)cc(Cl)c1)N1CCCC(c2nc3c(Cl)cccc3[nH]2)C1` (stereo not drawn) [Compound 1733, 1-(3-(4-chloro-1H-benzo[d]imidazol-2-yl)piperidin-1-yl)-2-(3,5-dichlorophenyl) ethanone] had an IC50 against MetRS (T. brucei) of 0.926 µM. Besides, the EC50 in the experiment with T. brucei was found to be 8.81 µM.

In the case of `Clc1cc(Cl)cc(CN[C@H]2CCN(c3nc4ccc(Cl)nc4[nH]3)C2)c1` [Compound 1845, (3S)-1-{5-chloro-3H-imidazo[4,5-b]pyridin-2-yl}-N-[(3,5-dichlorophenyl)methyl]pyrrolidin-3-amine], the IC50 against MetRS (T. brucei) was found to be 0.047 µM. Moreover, the EC50 in the experiment on T. brucei is 1.54 µM.

As to `O=C(Cc1ccc(Cl)cc1Cl)NCc1nc2ccc(Br)cc2[nH]1` [Compound 1874, N-[(6-bromo-1H-1,3-benzodiazol-2-yl)methyl]-2-(2,4-dichlorophenyl)acetamide], at MetRS (T. brucei), the midpoint of inhibition, the IC50, lay at 0.051 µM. Further, the EC50 in the experiment on T. brucei amounted to 3.65 µM.

As for `Nc1nc(Cl)ccc1NC(=O)C1CN(C(=O)Cc2cc(Cl)cc(Cl)c2)CCN1` (stereo not drawn) [Compound 1791, N-(2-amino-6-chloropyridin-3-yl)-4-(2-(3,5-dichlorophenyl)acetyl) piperazine-2-carboxamide], at MetRS (T. brucei), the IC50 turned out to be 8.48 µM. In addition, the EC50 in the experiment with T. brucei was above 20 µM.

Molecule `O=C(COc1ccc(Cl)cc1Cl)NCc1cc2ccccc2[nH]1` [Compound 1674, 2-(2,4-dichlorophenoxy)-N-(1H-indol-2-ylmethyl)acetamide] displayed an IC50 against MetRS (T. brucei) of 23 µM. For the same molecule, in the experiment on T. brucei, the EC50 was above 20 µM.

On MetRS (T. brucei), `Clc1cc(Cl)cc(CN[C@@H]2CCCN(c3nc4nc(Cl)ccc4[nH]3)C2)c1` [Compound 1855, (R)-1-(5-chloro-1H-imidazo[4,5-b]pyridin-2-yl)-N-(3,5-dichlorobenzyl) piperidin-3-amine] yielded an IC50 of 0.192 µM. In the experiment on T. brucei, the EC50 was found to be 0.999 µM.

As for `COc1ccc(Oc2nc(O)nc(NCc3nc4ccc(F)nc4[nH]3)n2)c(Cl)c1` [Compound 1885, 4-(2-chloro-4-methoxyphenoxy)-6-[({5-fluoro-3H-imidazo[4,5-b]pyridin-2-yl}methyl)amino]-1,3,5-triazin-2-ol], half-maximal inhibition against MetRS (T. brucei) (IC50) required 1.51 µM. In addition, the EC50 in the experiment with T. brucei worked out at 5.87 µM.

Consider `O=C(Cc1cc(Cl)cc(Cl)c1)N1CCCC(c2nc3cc(F)ccc3[nH]2)C1` (stereo not drawn) [Compound 1744, 2-(3,5-dichlorophenyl)-1-(3-(5-fluoro-1H-benzo[d]imidazol-2-yl)piperidin-1-yl)ethanone], for which, on MetRS (T. brucei), the IC50 came out at 0.184 µM. For the same molecule, the EC50 in the experiment on T. brucei was 3.26 µM.

Molecule `O=C1CN(Cc2ccccc2Cl)CCN1Cc1nc2ccccc2[nH]1` [Compound 1735, 1-(1H-1,3-benzodiazol-2-ylmethyl)-4-[(2-chlorophenyl)methyl]piperazin-2-one] had an IC50 against MetRS (T. brucei) above 10 µM. Further, in the experiment on T. brucei, the EC50 was above 20 µM.

`Fc1ccc2[nH]c(C3CCCC(NCc4cc(Cl)cc(Cl)c4)C3)nc2n1` (stereo not drawn) [Compound 1800, N-(3,5-dichlorobenzyl)-3-(5-fluoro-1H-imidazo[4,5-b]pyridin-2-yl) cyclohexanamine] gave an IC50 against MetRS (T. brucei) of 0.663 µM. In the experiment with T. brucei, the EC50 is 0.961 µM.

`COC(=O)[C@H](Cc1ccc(Cl)cc1Cl)NC(=O)NCc1nc2ccccc2[nH]1` [Compound 1755, methyl (2S)-2-{[(1H-1,3-benzodiazol-2-ylmethyl)carbamoyl]amino}-3-(2,4-dichlorophenyl)propanoate] displayed an IC50 against MetRS (T. brucei) of 1.39 µM. Moreover, the EC50 with T. brucei is above 10 µM.

The molecule `O=C(NCc1nc2cccnc2[nH]1)OCc1ccccc1` [Compound 1699, benzyl N-{3H-imidazo[4,5-b]pyridin-2-ylmethyl}carbamate] yielded an IC50 against MetRS (T. brucei) of 13.1 µM. In addition, the EC50 in the experiment on T. brucei is above 10 µM.

On MetRS (T. brucei), `CC(Cc1nc2cc(Cl)c(Cl)cc2[nH]1)NCc1cc(Cl)cc(Cl)c1` (stereo not drawn) [Compound 1822, [1-(5,6-dichloro-1H-1,3-benzodiazol-2-yl)propan-2-yl][(3,5-dichlorophenyl)methyl]amine] returned an IC50 of 1.49 µM. In addition, the EC50 in the experiment on T. brucei is 3.57 µM.
